According to ChEMBL document CHEMBL5131382, “Facile and divergent optimization of chromazonarol enabled the identification of simplified drimane meroterpenoids as novel pharmaceutical leads” (Eur J Med Chem, 2022):

Legend:
Assay type in all cases: functional
[1] = system: Sclerotinia sclerotiorum; assay: Antifungal activity against Sclerotinia sclerotiorum at 150 uM
[2] = system: Rhizoctonia solani; assay: Antifungal activity against Rhizoctonia solani at 150 uM
[3] = system: Fusarium graminearum; assay: Antifungal activity against Fusarium graminearum at 150 uM
[4] = system: Pyricularia oryzae; assay: Antifungal activity against Pyricularia oryzae at 150 uM
[5] = system: Phytophthora capsici; assay: Antifungal activity against Phytophthora capsici at 150 uM

Measured: inhibition at 150 µM

CC1(C)CCC[C@]2(C)[C@H]3Cc4cc(O)ccc4O[C@]3(C)CC[C@@H]12
< 60%: [1] | [2] | [3] | [4] | [5]

CC1(C)CCC[C@]2(C)[C@H]3Cc4cc(OC(=O)c5ccccc5)ccc4O[C@]3(C)CC[C@@H]12
< 60%: [1] | [2] | [3] | [4] | [5]

COc1ccc(C(=O)Oc2ccc3c(c2)C[C@@H]2[C@@]4(C)CCCC(C)(C)[C@@H]4CC[C@@]2(C)O3)cc1
< 60%: [1] | [2] | [3] | [4] | [5]

CC1(C)CCC[C@]2(C)[C@H]3Cc4cc(OC(=O)c5ccccn5)ccc4O[C@]3(C)CC[C@@H]12
< 60%: [1] | [2] | [3] | [4] | [5]

CC1(C)CCC[C@]2(C)[C@H]3Cc4cc(OC(=O)c5cccc(F)c5)ccc4O[C@]3(C)CC[C@@H]12
< 60%: [1] | [2] | [3] | [4] | [5]

CC1(C)CCC[C@]2(C)[C@H]3Cc4cc(Oc5cnc6ccccc6c5)ccc4O[C@]3(C)CC[C@@H]12
< 60%: [1] | [2] | [3] | [4] | [5]

CC1(C)CCC[C@]2(C)[C@H]3Cc4cc(OC(=O)c5cccnc5)ccc4O[C@]3(C)CC[C@@H]12
< 60%: [1] | [2] | [3] | [4] | [5]

C#CCOc1ccc2c(c1)C[C@@H]1[C@@]3(C)CCCC(C)(C)[C@@H]3CC[C@@]1(C)O2
< 60%: [1] | [2] | [3] | [4] | [5]

COc1ccc2c(c1)C[C@@H]1[C@@]3(C)CCCC(C)(C)[C@@H]3CC[C@@]1(C)O2
< 60%: [1] | [2] | [3] | [4] | [5]

CC1(C)CCC[C@]2(C)[C@H]3Cc4cc(Oc5ccccn5)ccc4O[C@]3(C)CC[C@@H]12
< 60%: [1] | [2] | [3] | [4] | [5]

CC1(C)CCC[C@]2(C)[C@H]3Cc4cc(OC(=O)c5ccc(F)cc5)ccc4O[C@]3(C)CC[C@@H]12
< 60%: [1] | [2] | [3] | [4] | [5]

CC1(C)CCC[C@@]2(C)C1CC[C@@]1(C)Oc3ccc(-c4cccnc4)cc3C[C@@H]12 (stereo not given in full)
< 60%: [1] | [2] | [3] | [4] | [5]

COc1ccc(-c2ccc3c(c2)C[C@H]2[C@@](C)(CCC4C(C)(C)CCC[C@@]42C)O3)cc1 (stereo not given in full)
< 60%: [1] | [2] | [3] | [4] | [5]

CC1(C)CCC[C@@]2(C)C1CC[C@@]1(C)Oc3ccc(-c4cnc5ccccc5c4)cc3C[C@@H]12 (stereo not given in full)
< 60%: [1] | [2] | [3] | [4] | [5]

CC1(C)CCC[C@]2(C)[C@H]3Cc4cc(OC(=O)c5cccnc5Cl)ccc4O[C@]3(C)CC[C@@H]12
< 60%: [1] | [2] | [3] | [4] | [5]

CC1(C)CCC[C@]2(C)[C@H]3Cc4cc(Oc5ccccc5)ccc4O[C@]3(C)CC[C@@H]12
< 60%: [1] | [2] | [3] | [4] | [5]

CC(=O)Oc1ccc2c(c1)C[C@@H]1[C@@]3(C)CCCC(C)(C)[C@@H]3CC[C@@]1(C)O2
< 60%: [1] | [2] | [3] | [4] | [5]

CC1(C)CCC[C@@]2(C)C1CC[C@@]1(C)Oc3ccc(-c4ccsc4)cc3C[C@@H]12 (stereo not given in full)
< 60%: [1] | [2] | [3] | [4] | [5]

CC(C)(C)C(=O)Oc1ccc2c(c1)C[C@@H]1[C@@]3(C)CCCC(C)(C)[C@@H]3CC[C@@]1(C)O2
< 60%: [1] | [2] | [3] | [4] | [5]

CC1(C)CCC[C@@]2(C)C1CC[C@@]1(C)Oc3ccc(-c4ccccc4)cc3C[C@@H]12 (stereo not given in full)
< 60%: [1] | [2] | [3] | [4] | [5]

CC1(C)CCC[C@]2(C)[C@H]3Cc4cc(OCc5ccccc5)ccc4O[C@]3(C)CC[C@@H]12
< 60%: [1] | [2] | [3] | [4] | [5]

CC(C)=CCOc1ccc2c(c1)C[C@@H]1[C@@]3(C)CCCC(C)(C)[C@@H]3CC[C@@]1(C)O2
< 60%: [1] | [2] | [3] | [4] | [5]

CC1(C)CCC[C@]2(C)[C@H]3Cc4cc(OC(=O)c5ccc6ccccc6n5)ccc4O[C@]3(C)CC[C@@H]12
< 60%: [1] | [2] | [3] | [4] | [5]

CCCOc1ccc2c(c1)C[C@@H]1[C@@]3(C)CCCC(C)(C)[C@@H]3CC[C@@]1(C)O2
< 60%: [1] | [2] | [3] | [4] | [5]

CCOc1ccc2c(c1)C[C@@H]1[C@@]3(C)CCCC(C)(C)[C@@H]3CC[C@@]1(C)O2
< 60%: [1] | [2] | [3] | [4] | [5]

CC1(C)CCC[C@@]2(C)C1CC[C@@]1(C)Oc3ccc(-c4ccc(F)cc4)cc3C[C@@H]12 (stereo not given in full)
< 60%: [1] | [2] | [3] | [4] | [5]

C=CCOc1ccc2c(c1)C[C@@H]1[C@@]3(C)CCCC(C)(C)[C@@H]3CC[C@@]1(C)O2
< 60%: [1] | [2] | [3] | [4] | [5]

C=CC(=O)Oc1ccc2c(c1)C[C@@H]1[C@@]3(C)CCCC(C)(C)[C@@H]3CC[C@@]1(C)O2
< 60%: [1] | [2] | [3] | [4] | [5]
